{
  "source": "ChEMBL document CHEMBL1143759",
  "about": "“Losartan and its interaction with copper(II): biological effects” (2007)",
  "key": {"[1]": {"assay": "Inhibition of cell proliferation of mouse MC3T3E1 cells at 500 uM", "type": "functional, MC3T3-E1", "parameters": "scale not given: the % may be the effect or the level left"}, "[2]": {"assay": "Inhibition of cell proliferation of rat UMR106 cells at 500 uM", "type": "functional", "parameters": "scale not given: the % may be the effect or the level left"}},
  "data": [
    {"compound": "CCCCc1nc(Cl)c(CO)n1Cc1ccc(-c2ccccc2-c2nnn[n-]2)cc1.[K+]", "note": "[LOSARTAN POTASSIUM]", "values": [
      {"measurement": "Activity", "setting": "[1]", "result": 10, "unit": "%"},
      {"measurement": "Activity", "setting": "[2]", "result": 10, "unit": "%"}
    ]}
  ]
}
